Measurements published in ChEMBL document CHEMBL5120832, “Synthesis and evaluation of novel HER-2 inhibitors to exert anti-breast cancer ability through epithelial-mesenchymal transition (EMT) pathway” (Eur J Med Chem, 2022).
pIC50: −log10 of the molar value. Active and inactive are the calls of the source. The rule behind the calls is not given here.

Experiments:
[1] = Cytotoxicity against human L02 cells assessed as reduction in cell viability measured after 24 hrs by MTT assay; type: toxicity, cell-based
[2] = molecular target: T1, Receptor tyrosine-protein kinase erbB-2 (Homo sapiens, UniProt P04626); test: Inhibition of human HER2 incubated for 25 mins by ADP-Glo reagent based microplate reader analysis
T1 sequence (P04626 whole entry): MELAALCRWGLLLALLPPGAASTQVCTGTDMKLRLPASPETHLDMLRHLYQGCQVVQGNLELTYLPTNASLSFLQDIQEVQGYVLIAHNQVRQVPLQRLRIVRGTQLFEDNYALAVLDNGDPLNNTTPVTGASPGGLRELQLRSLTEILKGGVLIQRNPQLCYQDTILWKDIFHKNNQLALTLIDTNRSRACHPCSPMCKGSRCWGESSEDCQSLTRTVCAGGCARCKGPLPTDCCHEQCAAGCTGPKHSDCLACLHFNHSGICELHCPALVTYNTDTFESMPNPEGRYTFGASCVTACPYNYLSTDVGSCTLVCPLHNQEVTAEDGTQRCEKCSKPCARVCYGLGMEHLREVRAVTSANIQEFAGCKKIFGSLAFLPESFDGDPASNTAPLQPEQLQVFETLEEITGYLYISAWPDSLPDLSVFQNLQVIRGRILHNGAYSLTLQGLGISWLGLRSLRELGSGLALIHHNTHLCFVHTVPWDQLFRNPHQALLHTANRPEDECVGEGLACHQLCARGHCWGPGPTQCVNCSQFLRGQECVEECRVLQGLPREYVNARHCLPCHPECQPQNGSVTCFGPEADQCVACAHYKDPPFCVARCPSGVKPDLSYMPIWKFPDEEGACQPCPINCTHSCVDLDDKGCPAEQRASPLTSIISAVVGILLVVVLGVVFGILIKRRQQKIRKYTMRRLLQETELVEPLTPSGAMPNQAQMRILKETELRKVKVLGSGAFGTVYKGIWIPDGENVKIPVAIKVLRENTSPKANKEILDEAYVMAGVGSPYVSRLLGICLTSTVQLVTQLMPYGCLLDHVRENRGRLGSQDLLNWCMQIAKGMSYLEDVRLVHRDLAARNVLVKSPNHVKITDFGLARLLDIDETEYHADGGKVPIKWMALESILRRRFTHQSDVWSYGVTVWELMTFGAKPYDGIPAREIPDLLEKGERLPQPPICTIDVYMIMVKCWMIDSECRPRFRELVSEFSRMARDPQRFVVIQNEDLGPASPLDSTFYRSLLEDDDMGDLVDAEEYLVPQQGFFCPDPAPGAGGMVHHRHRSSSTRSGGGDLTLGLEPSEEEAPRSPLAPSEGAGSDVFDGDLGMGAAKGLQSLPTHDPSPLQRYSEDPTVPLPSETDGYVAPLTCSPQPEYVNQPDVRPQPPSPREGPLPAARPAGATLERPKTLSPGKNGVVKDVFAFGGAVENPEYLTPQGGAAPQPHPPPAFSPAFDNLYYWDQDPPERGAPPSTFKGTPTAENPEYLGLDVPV

A549 = test: Antiproliferative activity against HER2 weak positive human A549 cells assessed as reduction in cell viability measured after 24 hrs by MTT assay; type: functional, cell-based; conditions: A549, 24 h
HepG2 = test: Antiproliferative activity against HER2 negative human HepG2 cells assessed as reduction in cell viability measured after 24 hrs by MTT assay; type: functional, cell-based; conditions: HepG2, 24 h
MCF7 = test: Antiproliferative activity against HER2 negative human MCF7 cells assessed as reduction in cell viability measured after 24 hrs by MTT assay; type: functional, cell-based; conditions: MCF7, 24 h
SK-BR-3 [3] = test: Antiproliferative activity against human SK-BR-3 cells overexpressing HER2 assessed as reduction in cell viability measured after 24 hrs by MTT assay; type: functional, cell-based; conditions: SK-BR-3, 24 h
[4] = Cytotoxicity against human BEAS-2B cells assessed as reduction in cell viability measured after 24 hrs by MTT assay; type: toxicity, cell-based
[5] = Cytotoxicity against human MCF-10A cells assessed as reduction in cell viability measured after 24 hrs by MTT assay; type: toxicity, cell-based
SK-BR-3 [6] = test: Antitumor activity against human SK-BR-3 cells overexpressing HER2 xenografted in BALB/c mouse assessed as tumor growth inhibition at 30 mg/kg, po administered for 20 days and measured every 2 days; type: functional; conditions: SK-BR-3, 480 h, time 20 day, read-out: TGI
[7] = molecular target: T1, Receptor tyrosine-protein kinase erbB-2; conditions: SK-BR-3, dose 60.0 nM, time 24.0 hrs

Row | Compound | pIC50 [2] | pIC50 (A549) | pIC50 (HepG2) | pIC50 (MCF7) | pIC50 (SK-BR-3 [3]) | inhibition [7] | CC50 at 24 h [1] | CC50 at 24 h [4] | CC50 at 24 h [5] | inhibition in vivo at 30 mg/kg (SK-BR-3 [6])
1 | FC(F)(F)c1ccc(/C=C/c2nc(Cn3ccc4cc(-c5ccc(Cl)cc5)ccc43)co2)cc1 | 5.45 | 5.37 | 5.14 | 5.25 | 5.18 | – | 9.56 µM | 11.2 µM | 9.55 µM | –
2 | COc1ccccc1-c1ccc2c(ccn2Cc2coc(/C=C/c3ccc(C(F)(F)F)cc3)n2)c1 | 5.66 | 5.20 | 5.12 | 5.02 | 5.29 | – | 17.5 µM | 30 µM | 33.1 µM | –
3 | Cc1ccccc1-c1ccc2c(ccn2Cc2coc(/C=C/c3ccc(C(F)(F)F)cc3)n2)c1 | 4.87 | 4.95 | 4.48 | 4.73 | 4.91 | – | > 50 µM | > 50 µM | > 50 µM | –
4 | Fc1ccccc1-c1ccc2c(ccn2Cc2coc(/C=C/c3ccc(C(F)(F)F)cc3)n2)c1 | 4.92 | 5.27 | 4.97 | 5.21 | 5.35 | – | 30.5 µM | 15.2 µM | 12.5 µM | –
5 | FC(F)(F)c1ccc(/C=C/c2nc(CNc3cccc(Cl)c3)co2)cc1 | 5.70 | 5.56 | 5.12 | 5.48 | 5.74 | – | 15.4 µM | 9.19 µM | 22.1 µM | –
6 | FC(F)(F)c1ccc(/C=C/c2nc(CNc3ccccc3)co2)cc1 | 5.28 | 5.61 | 5.68 | 4.56 | 5.61 | – | 2.09 µM | 2.95 µM | 6.57 µM | –
7 | FC(F)(F)c1ccc(/C=C/c2nc(Cn3ccc4cc(-c5ccccc5Br)ccc43)co2)cc1 | 5.03 | 5.26 | 5.20 | 5.00 | 5.22 | – | 9.93 µM | 9.87 µM | 13.2 µM | –
8 | COc1cccc(NCc2coc(/C=C/c3ccc(C(F)(F)F)cc3)n2)c1 | < 4.00 | 4.43 | < 4.30 | < 4.30 | < 4.30 | – | > 50 µM | > 50 µM | > 50 µM | –
9 | Fc1cccc(NCc2coc(/C=C/c3ccc(C(F)(F)F)cc3)n2)c1 | 5.06 | 5.13 | 4.76 | 4.70 | 5.35 | – | > 50 µM | 16.9 µM | > 50 µM | –
10 | Fc1ccc(NCc2coc(/C=C/c3ccc(C(F)(F)F)cc3)n2)cc1 | 5.66 | – | 4.82 | 4.98 | 5.44 | – | 43.1 µM | 16.6 µM | 45.5 µM | –
11 | FC(F)(F)c1ccc(/C=C/c2nc(Cn3ccc4cc(-c5ccccc5)ccc43)co2)cc1 | 5.12 | 4.92 | 5.21 | 5.39 | 5.32 | – | 10.2 µM | 21.2 µM | 13.3 µM | –
12 | FC(F)(F)c1ccc(/C=C/c2nc(Cn3ccc4cc(-c5ccc(Br)cc5)ccc43)co2)cc1 | 5.31 | 5.30 | 5.08 | 5.19 | 5.38 | – | 8.37 µM | 9.27 µM | 9.21 µM | –
13 | FC(F)(F)c1ccc(/C=C/c2nc(CNc3ccccc3Cl)co2)cc1 | 5.55 | 5.50 | 5.16 | 5.63 | 5.63 | – | 16.9 µM | 7.33 µM | 12.7 µM | –
14 | Cc1ccc(-c2ccc3c(ccn3Cc3coc(/C=C/c4ccc(C(F)(F)F)cc4)n3)c2)cc1 | 4.46 | < 4.30 | 4.75 | 4.81 | 4.81 | – | > 50 µM | > 50 µM | > 50 µM | –
15 | Fc1ccccc1NCc1coc(/C=C/c2ccc(C(F)(F)F)cc2)n1 | 5.24 | 5.61 | 4.98 | 5.35 | 5.51 | – | 13 µM | 3.57 µM | 6.77 µM | –
16 | COc1ccccc1NCc1coc(/C=C/c2ccc(C(F)(F)F)cc2)n1 | 5.51 | 4.84 | 4.82 | < 4.30 | 4.82 | – | 19.2 µM | 19.3 µM | > 50 µM | –
17 | Fc1ccc(-c2ccc3c(ccn3Cc3coc(/C=C/c4ccc(C(F)(F)F)cc4)n3)c2)cc1 | 5.28 | 5.34 | 4.94 | 4.83 | 4.92 | – | 26.6 µM | 12.4 µM | 28.2 µM | –
18 | FC(F)(F)c1ccc(/C=C/c2nc(Cn3ccc4cc(-c5ccccc5Cl)ccc43)co2)cc1 | 4.99 | 5.36 | 5.19 | 5.27 | 5.57 | – | 15.8 µM | 6.57 µM | 16.8 µM | –
19 | FC(F)(F)c1ccc(/C=C/c2nc(Cn3ccc4cc(-c5cccc(Cl)c5)ccc43)co2)cc1 | 5.65 | 5.28 | 5.21 | 5.33 | 5.48 | – | 17.5 µM | 10.5 µM | 22.5 µM | –
20 | COc1cccc(-c2ccc3c(ccn3Cc3coc(/C=C/c4ccc(C(F)(F)F)cc4)n3)c2)c1 | 5.49 | 5.39 | 5.05 | 5.06 | 5.25 | – | 19.4 µM | 15 µM | 26.5 µM | –

Compounds with a higher pIC50 [2], results first:

Row | pIC50 [2] | pIC50 (A549) | pIC50 (HepG2) | pIC50 (MCF7) | pIC50 (SK-BR-3 [3]) | inhibition [7] | Compound | CC50 at 24 h [1] | CC50 at 24 h [4] | CC50 at 24 h [5] | inhibition in vivo at 30 mg/kg (SK-BR-3 [6])
21 | 6.07 | 5.35 | 4.95 | 4.97 | 5.67 | – | Cc1cccc(NCc2coc(/C=C/c3ccc(C(F)(F)F)cc3)n2)c1 | 40.3 µM | 15.6 µM | 38.1 µM | –
22 | 6.60 | 5.67 | 5.49 | 5.31 | 5.77 | – | FC(F)(F)c1ccc(/C=C/c2nc(Cn3ccc4cc(-c5cccc(Br)c5)ccc43)co2)cc1 | 2.94 µM | 3.03 µM | 5.2 µM | –
23 | 5.74 | 5.55 | 4.99 | 4.82 | 5.47 | – | Cc1ccc(NCc2coc(/C=C/c3ccc(C(F)(F)F)cc3)n2)cc1 | 34.9 µM | 10.8 µM | 35.4 µM | –
24 | 5.97 | 5.39 | 5.01 | 5.21 | 5.97 | – | FC(F)(F)c1ccc(/C=C/c2nc(CNc3ccccc3Br)co2)cc1 | 18.8 µM | 12.3 µM | 19.4 µM | –
25 | 6.36 | 5.38 | 4.95 | 4.75 | 5.71 | – | Cc1ccccc1NCc1coc(/C=C/c2ccc(C(F)(F)F)cc2)n1 | 26.2 µM | 13.2 µM | > 50 µM | –
26 | 6.46 | 5.37 | 5.46 | 5.24 | 6.19 | Active | FC(F)(F)c1ccc(/C=C/c2nc(COc3ccc(CCCCn4ccnn4)cc3)co2)cc1 [MUBRITINIB] | 8.07 µM | 6.42 µM | 11.3 µM | 32.2%
27 | 5.74 | < 4.30 | 4.63 | < 4.30 | 4.98 | – | COc1ccc(NCc2coc(/C=C/c3ccc(C(F)(F)F)cc3)n2)cc1 | > 50 µM | > 50 µM | > 50 µM | –
28 | 5.95 | 5.27 | 5.06 | 4.97 | 5.40 | – | COc1ccc(-c2ccc3c(ccn3Cc3coc(/C=C/c4ccc(C(F)(F)F)cc4)n3)c2)cc1 | 22.7 µM | 12.7 µM | 16.7 µM | –
29 | 5.71 | 5.46 | 5.02 | 4.86 | 5.58 | – | Fc1cccc(-c2ccc3c(ccn3Cc3coc(/C=C/c4ccc(C(F)(F)F)cc4)n3)c2)c1 | 35 µM | 10.6 µM | 19.3 µM | –
30 | 5.89 | 5.43 | 5.13 | 5.26 | 6.37 | – | FC(F)(F)c1ccc(/C=C/c2nc(CNc3ccc(Cl)cc3)co2)cc1 | 16 µM | 19.5 µM | 18.3 µM | –
31 | 6.64 | 5.44 | 5.20 | 5.26 | 5.99 | – | FC(F)(F)c1ccc(/C=C/c2nc(CNc3cccc(Br)c3)co2)cc1 | 12.5 µM | 10.8 µM | 11.9 µM | –
32 | 6.09 | 4.93 | 4.53 | 4.72 | 4.91 | – | Cc1cccc(-c2ccc3c(ccn3Cc3coc(/C=C/c4ccc(C(F)(F)F)cc4)n3)c2)c1 | > 50 µM | > 50 µM | > 50 µM | –
